Results on one substance are retold here after paper PMC9942557, “Bolaamphiphile Analogues of 12-bis-THA Cl2 Are Potent Antimicrobial Therapeutics with Distinct Mechanisms of Action against Bacterial, Mycobacterial, and Fungal Pathogens” (mSphere, 2022).

One assay relates to P. aeruginosa PAO1. Briefly: Fixed-concentration (0.25× MIC bolalipid) synergy broth microdilution. In kind it is cell-based, Pseudomonas aeruginosa. To be noted: P. aeruginosa PAO1.
The subject of assay [1] is Pseudomonas aeruginosa RP73. In words: In vitro pharmacodynamic (PD) assay. The conditions noted are these: P. aeruginosa RP73; combination 2:1 (wt/wt).
Protocol: In vitro PD assays were performed with Pseudomonas aeruginosa RP73 cultured in Roswell Park Memorial Institute 1640 medium (RPMI) supplemented with 5% Mueller-Hinton broth (MHB) ([35]). Bacteria were cultured overnight in 10 mL of RPMI–5% MHB at 37°C and diluted just prior to plate inoculation to an OD600 of 0.002. Stock solutions of colistin or tobramycin were prepared in sterile MilliQ water at a concentration of 200× MIC. Octa-bola was prepared in methanol at 2,000× MIC and diluted in water to 200× MIC. A dilution series was made in the top row of a polypropylene 96-well plate from 200× MIC to 0.2× MIC in a volume of 100 μL, to which 100 μL of the bacterial suspension was added to have a total of 1 × 10^6 log-phase CFU in 200 μL. The first time zero sample was taken <30 s after addition of bacteria to the plate, with further samples taken at appropriate intervals thereafter. […] Fifteen microliters was removed from each well, diluted 1:1,000 in phosphate-buffered saline, and plated onto RPMI–5% MH agar plates. The plates were incubated at 37°C overnight for CFU counting.
CFU data were log10 transformed, and the bacterial net growth rate was determined from the increase or decrease in CFU during the time of exposure to the antibiotics as the coefficient of a linear regression of log10 CFU as a function of time. The intercept of the regression was fixed by forcing the regression lines through the first CFU measurement (0 min) at a given antimicrobial concentration. The pharmacodynamic function according to Regoes et al. ([36]) describes the relationship between bacterial net growth rate (ψ) and the concentration of an antimicrobial (a): ψmax − ([ψmax − ψmin][a/zMIC])^κ/([a/zMIC]^κ − [ψmin/ψmax]). Fitting this function to the net bacterial growth rates in OriginPro 2020 (OriginLab Corporation, Northampton, MA) generates the parameters ψmin and ψmax (minimum and maximum growth rates, respectively), zMIC (the pharmacodynamic MIC), and κ (a measure of the cooperativity). […]
Another assay deals with P. aeruginosa NCTC 13437. In words: Fixed-concentration (0.25× MIC bolalipid) synergy broth microdilution. Format: cell-based, Pseudomonas aeruginosa. To be noted: P. aeruginosa NCTC 13437. In general terms: Dilution methods test growth across graded concentrations, often in twofold steps.
[2] abbreviates: in the presence of 0.25× MIC Octa-C10 (Table S1).
The mark [3] stands for this setting: in the presence of 0.25× MIC Octa-bola (Table S1).

As for Colistin, the MIC of antibiotic in the assay with P. aeruginosa PAO1 (No bola (Table S1)) is 0.125 to 0.25 µg/mL; in the assay with P. aeruginosa PAO1 (setting [2]), 0.06 µg/mL; in the assay with P. aeruginosa PAO1 (setting [3]), 0.06 µg/mL; with P. aeruginosa NCTC 13437 (No bola (Table S1)), 0.25 to 0.5 µg/mL; in the assay on P. aeruginosa NCTC 13437 (setting [2]), 0.125 to 0.25 µg/mL; with P. aeruginosa NCTC 13437 (setting [3]), 0.125 µg/mL. In assay [1], the “bactericidal activity (minimum growth rate, ψmin)” value is “weakly bactericidal”.
